# Assay results as given in the METLIN SMRT retention time set (Domingo-Almenara et al. 2019).
# Test: gradient 5% acetonitrile 3 min, to 50% in 2 min, to 85% in 15 min, held 3 min, 100 µL/min
# Details: column: Zorbax Extend-C18 2.1 x 50 mm; eluents: water / acetonitrile, 0.1% formic acid
# Method in brief: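 Each retention time is based on an adduct peak selected computationally and verified by manual inspection. Measurements used HPLC–quadrupole time-of-flight mass spectrometry in positive and negative ionization mode on mixtures of ~100 pure standards. Chromatography ran on a Zorbax Extend-C18 column (2.1 × 50 mm, 1.8 μm) at 100 μL/min with water and acetonitrile, each containing 0.1% formic acid, and dead and dwell volumes of 40 μL and 900 μL.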
row,RP-LC retention time,SMILES
1,756 s,CCn1ccc(C(=O)N2CCCn3nc(-c4ccc(OC)cc4)cc3C2)n1
2,1290 s,Cc1ccc(-c2csc(NC(=O)CSc3nc4c(cc3C#N)CCCC4)n2)cc1
3,813 s,Cc1nnc(-c2ccc3ccn(CC(=O)NC4CCCCCC4)c3c2)o1
4,952 s,CC(C)(C)c1noc(-c2ccnc(-n3cnc(C(=O)N4CCSCC4)c3)c2)n1
5,625 s,CC(=O)N1CCC(Cc2noc(C3CC3)n2)C1 (stereo not given)
6,640 s,CC(C)c1noc(C2CCCN(S(=O)(=O)c3cn(C)cn3)CCC(=O)NCC2)n1 (stereo not given)
7,810 s,CCOC(=O)N1CCN(C(=O)CSc2nccc3c(OC)cccc23)CC1
8,628 s,CC1CCCN(c2ccc(-c3noc(CN4CCN(C(C)C)CC4)n3)cn2)C1 (stereo not given)
9,946 s,COc1ccc(Cl)cc1NC(=O)C1CCN(S(=O)(=O)c2ccc3c(c2)NC(=O)C(C)O3)CC1 (stereo not given)
10,684 s,CC(=O)NCc1csc(C2CCCN(C(=O)c3cc(F)cc(F)c3)C2)n1 (stereo not given)
11,732 s,NC(=O)C1CCN(c2ncnc3c2cnn3-c2ccc(Cl)cc2)CC1
12,738 s,Cc1cccc(N2CCN(c3cc(C)nc4c(-c5ccccc5)cnn34)CC2)n1
13,852 s,CCc1nc2cc(N3CCC(C(=O)NCc4ccc(F)cc4F)CC3)cnc2nc1CC
14,637 s,Cc1noc(C)c1CN1CC2(CCCCC2)CC1COc1ccncc1 (stereo not given)
15,928 s,O=C(C1CCCN(c2ncnc3c2nc2n3CCCCC2)C1)N1CCN(c2ccc(Cl)cc2)CC1 (stereo not given)
16,737 s,N#Cc1ccc(S(=O)(=O)N2CCC(c3cc(N)on3)CC2)cc1
17,611 s,O=C(CN1CCN(C(=O)c2cnn3c(-c4ccc5c(c4)OCO5)ccnc23)CC1)N1CCCCC1

row,RP-LC retention time,SMILES
1,920 s,CCn1c(=O)c2ccccc2n(Cc2nc(-c3ccc(OC)c(OC)c3)no2)c1=O
2,632 s,COc1ccc(-c2noc(N3CCC(C(=O)N4CCN(C5CCCCC5)CC4)CC3)n2)cc1OC
3,741 s,Cc1nnc(N2CCCC(C(=O)N3CCCCC3)C2)c2nn(-c3ccc(Cl)cc3)c(C)c12 (stereo not given)
4,707 s,Cc1nc(-c2cc(S(=O)(=O)N3CCC(C(=O)NC4CCCCCC4)CC3)c(C)s2)no1
5,1020 s,CCOC(=O)c1nc(Nc2ccc(C(C)C)cc2)c2ccccc2n1
6,922 s,Cc1nc(-c2ccc3c(c2)n(CC(=O)N2CCc4ccccc42)c(=O)n3C(C)C)no1
7,1280 s,Cc1ccccc1-c1noc(C2CCCN2S(=O)(=O)c2cccc(Cl)c2C)n1 (stereo not given)
8,1170 s,Cc1cccc(-c2nc(C3CCN(S(=O)(=O)c4cccc(F)c4)CC3)no2)c1
9,645 s,CCn1c(-c2nonc2N)nc2c(C#CC(C)(C)O)ncc(OC[C@H]3CCCNC3)c21
10,1050 s,Cc1ccc(CNS(=O)(=O)c2cn(CC(C)C)c3ncccc23)cc1
11,684 s,O=C(CCC1CCN(c2cc(NC3CC3)ncn2)CC1)NCc1ccc(F)cc1F
12,922 s,Cc1c(-c2ccc(Cl)cc2)noc1C1CCN(CCc2ccccc2)CC1
13,660 s,CC1CCN(c2nc(C(=O)NCc3ccccn3)nc3c2cnn3C)CC1
14,649 s,COC(=O)c1cnc2nc(C)ccc2c1Nc1ccccc1F
15,1010 s,CCn1nccc1-c1cccc(-c2noc(C3CC(=O)N(c4ccc(C)cc4)C3)n2)c1 (stereo not given)
16,753 s,CCCNC(=O)c1ccc2c(c1)CCCN2S(=O)(=O)CC
17,1040 s,CCN1CCN(c2nc3c(c(Nc4ccccc4)n2)C(=O)CCC3)CC1

# The next lines start with the compound.
row,SMILES,RP-LC retention time
1,Cc1ccccc1Cn1cc(-c2ccncc2)cc1C(=O)NCC1CCCO1 (stereo not given),667 s
2,Cn1cc(CN2CCC(C(=O)NCc3ccc(F)cc3)CC2)c2cc(Cl)ccc21,716 s
3,CCN1CCN(C(=O)c2cc3n(n2)CC(C)(C(=O)NC2CCCCCC2)N(C)C3=O)CC1 (stereo not given),611 s
4,Clc1ccc(Cl)c(-c2ccc(CNCc3ccccn3)o2)c1,733 s
5,Cc1scc2nc(C(=O)NC(C)C)nc(N(C)C)c12,581 s
6,Cc1ccccc1S(=O)(=O)N1CCc2nc(-c3ccc(Cl)cc3)ncc2C1,1240 s
7,Cn1nccc1C(=O)Nc1ccc(OCc2nnc(-c3ccc(Cl)cc3)o2)cc1,864 s
8,CC(C)n1c(CNC(=O)C2CC(=O)N(c3n[nH]c4ccccc34)C2)nc2ccccc21 (stereo not given),614 s
9,O=C(CSc1ncnc2c1[nH]c1ccccc12)N1CCc2ccccc2C1,842 s
10,COc1ccc2c(c1)C1(CCN(S(=O)(=O)c3ccc4c(c3)oc(=O)n4C)C1)C(=O)N2C (stereo not given),818 s
11,CCn1ccc(NC(=O)c2ccc(C)cc2C)n1,765 s
12,O=C(CN1C(=O)CCS(=O)(=O)c2ccccc21)Nc1ccccc1C(F)(F)F,746 s
13,COC(=O)c1ccc2c(=O)n(-c3ccc(F)cc3)c(N3CCN(c4ccccn4)CC3)nc2c1,660 s
14,CCSc1nc2ccc(NS(=O)(=O)Cc3ccc(Cl)cc3)cc2s1,1080 s
15,NC(=O)C1(c2cccc(F)c2)CC1,694 s
16,CCCC(=O)Nc1ccc2c(c1)CN(C(=O)c1ccc(C)cc1C)C(C(=O)N(C)C)C2 (stereo not given),760 s
17,Cc1ccc(CNC(=O)C2(C)CCCN(C(=O)Nc3cccc(Cl)c3)C2)cc1 (stereo not given),1040 s
18,CN1C(=O)c2cc(S(=O)(=O)Nc3cc(F)cc(F)c3)ccc2Oc2cccnc21,936 s
19,CC(=O)N1CCN(S(=O)(=O)c2cccc(C(=O)NCc3cccnc3)c2)CC1,533 s

row,SMILES,RP-LC retention time
1,CCCC(=O)Nc1ccc2c(c1)CN(C(=O)c1cccc(Cl)c1)C(C(=O)N(C)C)C2 (stereo not given),759 s
2,CCCn1cc(CCNS(=O)(=O)c2cccc(C#N)c2)c2cccnc21,789 s
3,O=C1CC(NS(=O)(=O)c2ccc(Br)s2)CN1 (stereo not given),630 s
4,CCCS(=O)(=O)N1CCC(C2CCN(C(=O)NC)CC2)C1 (stereo not given),659 s
5,CCc1nncn1C1CCN(S(=O)(=O)c2ccc(F)c(Cl)c2)CC1,734 s
6,CC1=C(c2ccccc2)S(=O)(=O)N=C1N1CCCN(C(=O)c2cccnc2)CC1,664 s
7,CN1c2cc(F)ccc2C(=O)NC12CCN(C(=O)c1cccc(Cl)c1)CC2,800 s
8,Fc1ccc(Cc2nc3nccc(-c4ccccc4)n3n2)cc1,890 s
9,O=C(Nc1ccc2c(c1)OCO2)C(=O)c1ccc[nH]1,802 s
10,N#Cc1ccccc1NC(=O)Cc1ccc2c(c1)OCO2,710 s
11,CCOc1ccc(-n2nnc3c(=O)n(C/C=C/c4ccccc4)cnc32)cc1,969 s
12,Cc1ccc(C(=O)N2C[C@@H]3C[C@H]2C[C@@H]3NS(C)(=O)=O)s1,595 s
13,COc1ccc(-c2nnc(-c3ccc(-n4ccnc4)nc3)o2)cc1,654 s
14,CCn1c(=O)c2ccn(CC(=O)NCc3cccnc3)c2n(CC)c1=O,568 s
15,O=C(CN1CCN(Cc2ccc(F)cc2)C1=O)NCCCn1cccn1,672 s
16,CN1CCc2ccccc2C1Cc1ccccc1NC(=O)c1sc2ccccc2c1Cl (stereo not given),852 s
17,CC(=O)Nc1ccc(OCC(O)CNC(C)(C)CC(C)(C)C)cc1 (stereo not given),562 s
18,COc1ccccc1C(=O)N1CCc2cn(C)c3cccc(c23)C1,920 s
19,Cc1ccc(-c2noc(CN3C(=O)COc4cc(C)ccc43)n2)cc1,1130 s

row,SMILES,RP-LC retention time
1,O=S(=O)(c1cccnc1)N1CCC2(CC1)NCCc1c2[nH]c2ccccc12,640 s
2,O=C(COc1ccc(F)cc1)N1CCN(c2ccc(=O)n(-c3ccc(Cl)cc3)n2)CC1,874 s
3,O=C(Nc1ccc(N2CCOCC2)cc1)c1ccc2nc(-c3ccccc3)cn2c1,646 s
4,Cc1ccc(-c2csc3c(=O)n(Cc4ccccn4)cnc23)cc1,889 s
5,Cc1ccc(-c2ncc(NC(=O)CC(C)C)cn2)cc1,961 s
6,O=C(Cn1c(=O)c2cccn2c2ccc(F)cc21)NCCCN1CCOCC1,602 s
7,O=C(CSCc1ccccc1)N1CCC(c2nnc(C(F)(F)F)o2)CC1,857 s
8,Cc1ccc(Nc2c(-c3ccc(O)cc3)nc3ncccn23)cc1Cl,690 s
9,Cc1cc2nc(C(=O)Nc3cc(F)cc(F)c3)cc(C)n2n1,1050 s
10,O=C(c1cccc(Br)c1)N1CCC(n2c(-c3ccco3)nc3cccnc32)C1 (stereo not given),814 s
11,Cn1nc(C(=O)N2CCCC(C(=O)Nc3ccccc3)C2)c2c1CCN(C(=O)c1ccc(F)cc1)C2 (stereo not given),756 s
12,CC(=O)N1CCc2cc(N3CC(C(=O)Nc4cc(F)ccc4F)CC3=O)ccc21 (stereo not given),712 s
13,CCC(C(=O)NCCCOC)n1c2ccccc2c2cnn(C)c(=O)c21 (stereo not given),749 s
14,CNc1nc(SC)n(C)c(=O)c1N=O,667 s
15,COC(=O)COc1cc(-c2ccc(F)cc2)nc2ccc(NC(=O)Cc3ccccc3)cc12,809 s
16,O=C1CC(c2ccccc2)N(S(=O)(=O)c2cccc3nsnc23)CCCCCCN1 (stereo not given),886 s
17,Cc1ccc2nc(C(=O)N3CCN(c4ccccc4Cl)CC3)cn2c1,748 s
18,CCCCOc1ccc(C(=O)N2CCOC(c3ccccc3)C2)cc1 (stereo not given),1060 s
